Results from ChEMBL document CHEMBL5365537, “Development of LM-41 and AF-2112, two flufenamic acid-derived TEAD inhibitors obtained through the replacement of the trifluoromethyl group by aryl rings” (Bioorg Med Chem Lett, 2023).
The source made the active and inactive calls. No cut-off for these calls is given here.

Legend:
[1] = target: Transcriptional enhancer factor TEF-3 (Homo sapiens) (UniProt Q15561); test: Inhibition of TEAD4 in human MDA-MB-231 cells assessed as decrease in TEAD-dependent NF2 gene expression at 10 uM incubated for 24 hrs by RT-qPCR analysis; assay type: cell-based
[2] = target: Transcriptional enhancer factor TEF-3 (Homo sapiens) (UniProt Q15561); test: Inhibition of TEAD4 in human MDA-MB-231 cells assessed as decrease in TEAD-dependent CTGF gene expression at 10 uM incubated for 24 hrs by RT-qPCR analysis; assay type: cell-based
[3] = target: Transcriptional enhancer factor TEF-3 (Homo sapiens) (UniProt Q15561); test: Inhibition of TEAD4 in human MDA-MB-231 cells assessed as decrease in TEAD-dependent Cyr61 gene expression at 10 uM incubated for 24 hrs by RT-qPCR analysis; assay type: cell-based
[4] = target: Transcriptional enhancer factor TEF-3 (Homo sapiens) (UniProt Q15561); test: Inhibition of TEAD4 in human MDA-MB-231 cells assessed as decrease in TEAD-dependent Axl gene expression at 10 uM incubated for 24 hrs by RT-qPCR analysis; assay type: cell-based
[5] = target: Transcriptional enhancer factor TEF-3 (Homo sapiens) (UniProt Q15561); test: Binding affinity to TEAD4 (unknown origin) assessed as change in aggregation temperature at 25 uM by DSF assay
[6] = target: Transcriptional enhancer factor TEF-3 (Homo sapiens) (UniProt Q15561); test: Binding affinity to TEAD4 (unknown origin) assessed as change in aggregation temperature at 25 uM by DSLS thermal shift assay
[7] = system: MDA-MB-231; test: Antimigratory activity against human MDA-MB-231 cells assessed as reduction in cell migration at 10 uM incubated for 48 hrs; assay type: functional, cell-based

Transcriptional enhancer factor TEF-3 (Homo sapiens), sequence (Q15561 whole entry): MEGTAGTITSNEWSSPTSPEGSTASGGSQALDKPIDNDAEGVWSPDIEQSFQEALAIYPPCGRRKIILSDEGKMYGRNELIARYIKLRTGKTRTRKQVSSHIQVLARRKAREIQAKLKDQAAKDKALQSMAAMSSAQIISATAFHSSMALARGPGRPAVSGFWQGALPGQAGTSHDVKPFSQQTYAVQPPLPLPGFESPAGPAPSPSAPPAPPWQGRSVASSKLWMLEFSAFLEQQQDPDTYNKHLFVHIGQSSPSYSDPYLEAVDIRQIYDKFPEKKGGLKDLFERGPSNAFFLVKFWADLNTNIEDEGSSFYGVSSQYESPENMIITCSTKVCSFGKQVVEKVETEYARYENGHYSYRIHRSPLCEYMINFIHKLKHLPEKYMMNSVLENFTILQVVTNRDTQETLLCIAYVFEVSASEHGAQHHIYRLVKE

SMILES: O=C(O)c1cccnc1Nc1cccc(OCCc2ccccc2)c1
- inhibition [1]: inactive
- inhibition [2]: inactive
- inhibition [3]: inactive
- inhibition [4]: inactive
- deltaT [5]: 3.6 °C

SMILES: Cc1ccc(Nc2cccc(OCc3ccccc3)c2)c(C(=O)O)c1
- inhibition [1]: Active
- inhibition [2]: Active
- inhibition [3]: inactive
- inhibition [4]: inactive
- deltaT [6]: 4 °C
- Activity [7]: Active

SMILES: O=C(O)c1ccccc1Nc1cccc(C(F)(F)F)c1
- inhibition [1]: inactive
- inhibition [2]: inactive
- inhibition [3]: inactive
- inhibition [4]: inactive
- Activity [7]: inactive

SMILES: Cc1ccc(Nc2cc(F)ccc2C(=O)O)cc1OCc1ccccc1
- deltaT [6]: 3.8 °C

SMILES: O=C(O)c1cccnc1Nc1cccc(-c2cccc(C(F)(F)F)c2)c1
- deltaT [6]: 4.8 °C

SMILES: O=C(O)c1ccc(F)cc1Nc1cccc(-c2ccc(C(F)(F)F)cc2)c1
- deltaT [6]: 4.5 °C

SMILES: O=C(O)c1ccc(F)cc1Nc1cccc(CCc2ccccc2)c1
- deltaT [6]: 5.6 °C

SMILES: O=C(O)c1ccccc1Nc1cccc(OCc2ccccc2)c1
- deltaT [6]: 2.9 °C

SMILES: O=C(O)c1ccc(F)cc1Nc1ccccc1-c1cccs1
- inhibition [1]: inactive
- inhibition [2]: inactive
- inhibition [3]: inactive
- inhibition [4]: inactive
- deltaT [6]: 5.5 °C

SMILES: O=C(O)c1cccnc1Nc1cccc(C(F)(F)F)c1
- inhibition [1]: inactive
- inhibition [2]: inactive
- inhibition [3]: inactive
- inhibition [4]: inactive

SMILES: O=C(O)c1ccc(F)cc1Nc1cccc(COc2ccccc2)c1
- deltaT [6]: 3 °C

SMILES: COc1ccccc1-c1cccc(Nc2cc(F)ccc2C(=O)O)c1
- deltaT [6]: 1.3 °C

SMILES: O=C(O)c1ccccc1Nc1cccc(-c2ccccc2)c1
- deltaT [6]: 2.1 °C

SMILES: Cc1ccccc1Nc1cc(F)ccc1C(=O)O
- deltaT [6]: 2.2 °C

SMILES: O=C(O)c1ccc(F)cc1Nc1cccc(-c2ccccc2)c1
- inhibition [1]: Active
- inhibition [2]: Active
- inhibition [3]: Active
- inhibition [4]: Active
- deltaT [6]: 3.4 °C
- Activity [7]: Active

SMILES: O=C(O)c1ccc(F)cc1Nc1cccc(OCc2ccccc2)c1
- inhibition [1]: Active
- inhibition [2]: Active
- inhibition [3]: inactive
- inhibition [4]: inactive
- deltaT [6]: 3.8 °C

SMILES: COc1ccc(-c2cccc(Nc3cc(F)ccc3C(=O)O)c2)cc1
- deltaT [6]: 2.7 °C

SMILES: COc1cccc(-c2cccc(Nc3cc(F)ccc3C(=O)O)c2)c1
- deltaT [6]: 3.5 °C

SMILES: O=C(O)c1ccc(F)cc1Nc1cccc(-c2cccnc2)c1
- deltaT [6]: 0 °C

SMILES: O=C(O)c1ccc(F)cc1Nc1cccc(-c2cccc(Cl)c2)c1
- deltaT [6]: 3.1 °C

SMILES: O=C(O)c1ccc(F)cc1Nc1cccc(-c2cccc(F)c2)c1
- deltaT [6]: 3.9 °C

SMILES: O=C(O)c1ccc(F)cc1Nc1cccc(-c2cccc(Br)c2)c1
- deltaT [6]: 3.9 °C

SMILES: O=C(O)c1ccc(F)cc1Nc1cccc(-c2cccc(C(F)(F)F)c2)c1
- deltaT [6]: 6.2 °C

SMILES: O=C(O)c1ccc(F)cc1Nc1cccc(OCCc2ccccc2)c1
- inhibition [1]: Active
- inhibition [2]: Active
- inhibition [3]: Active
- inhibition [4]: Active
- deltaT [6]: 5.1 °C
- Activity [7]: Active

SMILES: O=C(O)c1ccc(F)cc1Nc1cccc(-c2ccccn2)c1
- deltaT [6]: 1 °C

SMILES: O=C(O)c1ccc(F)cc1Nc1cccc(-c2ccccc2C(F)(F)F)c1
- deltaT [6]: 2.5 °C

SMILES: Cc1ccc(Nc2cc(F)ccc2C(=O)O)cc1
- deltaT [6]: 4 °C

SMILES: O=C(O)c1ccc(F)cc1Nc1cccc(Cc2ccccc2)c1
- deltaT [6]: 3 °C

SMILES: Cc1cccc(Nc2cc(F)ccc2C(=O)O)c1
- deltaT [6]: 4.7 °C

SMILES: Cc1ccc(C(=O)O)c(Nc2cccc(OCc3ccccc3)c2)c1
- deltaT [6]: 2.3 °C
